From patent publication US9090593B2, “Bicyclic compounds as Pim inhibitors” (AMGEN INC., priority 2010, dated 2015)

How the values were obtained:
[1] = target: T1, full length recombinant Pim-1 protein (Homo sapiens, UniProt P11309); assay: Pim-1 enzyme assay (HTRF, phosphorylation of biotinylated-BAD (S112) peptide); format: biochemical; conditions: enzyme assay, Pim-1; read-out: Pim_1_IC50
T1 construct: by full length recombinant Pim-1, Pim-2, or Pim-3 protein; hexahistidine tag followed by a thrombin cleavage site (N); made in house; host or cells: Sf9 (baculovirus) or E. coli (pET28)
In short: (§1)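 HTRF read-out: Eu-labelled anti-phospho-BAD (S112) antibody plus streptavidin-APC detect phosphorylated biotin-BAD peptide. Enzymes were full-length recombinant human Pim-1 and Pim-2; buffer 60 mM Hepes pH 7.0, 0.05% BSA, 2 mM DTT; reactions quenched with 3 mM EDTA. Percent-of-control data fitted to a 4-parameter logistic for IC50.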

[2] = target: T2, Pim-1 stably transfected into the U2OS human osteogenic sarcoma line (Homo sapiens, UniProt P11309); assay: Pim cell assay, phospho-BAD normalized against total BAD, U2OS stably transfected with Pim-1; format: cell-based; conditions: U2OS cells stably transfected with Pim-1, phospho-BAD; high dose […]; read-out: Pim1_Cell_IC50
T2 construct: expressed in transfected cells; host or cells: U2OS human osteogenic sarcoma line
In short: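 Read-out is phospho-BAD relative to total BAD, by MSD electrochemiluminescence on lysates, expressed as % phosphoprotein = (2×phospho)/(phospho+total)×100. Engineered U2OS lines carrying stably transfected Pim-1 or Pim-2 received 10-point compound dilutions at 0.3% final DMSO after overnight culture at 37 °C; DMSO-only wells served as high control.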

[3] = target: T3, full length recombinant Pim-2 protein (Homo sapiens, UniProt Q9P1W9); assay: Pim-2 enzyme assay (HTRF, phosphorylation of biotinylated-BAD (S112) peptide); format: biochemical; conditions: enzyme assay, Pim-2; read-out: Pim2_IC50
T3 construct: by full length recombinant Pim-1, Pim-2, or Pim-3 protein; hexahistidine tag followed by a thrombin cleavage site (N); made in house; host or cells: Sf9 (baculovirus) or E. coli (pET28)
In short: as §1

[4] = target: T4, full length recombinant Pim-3 protein (Homo sapiens, UniProt Q86V86); assay: Pim-3 enzyme assay (HTRF, phosphorylation of biotinylated-BAD (S112) peptide); format: biochemical; conditions: read-out: Pim3 IC50
T4 construct: by full length recombinant Pim-1, Pim-2, or Pim-3 protein; purchased Millipore (UK)
In short: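 HTRF read-out, streptavidin-APC plus Eu-labelled anti-phospho-BAD (S112) antibody, measures BAD peptide phosphorylation by full-length recombinant Pim-3. Buffer: 60 mM Hepes pH 7.0, 2 mM DTT, 0.05% BSA; EDTA (3 mM) stop. Percent of control per well, IC50 by 4-parameter logistic fit.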

T1 sequence (P11309 whole entry): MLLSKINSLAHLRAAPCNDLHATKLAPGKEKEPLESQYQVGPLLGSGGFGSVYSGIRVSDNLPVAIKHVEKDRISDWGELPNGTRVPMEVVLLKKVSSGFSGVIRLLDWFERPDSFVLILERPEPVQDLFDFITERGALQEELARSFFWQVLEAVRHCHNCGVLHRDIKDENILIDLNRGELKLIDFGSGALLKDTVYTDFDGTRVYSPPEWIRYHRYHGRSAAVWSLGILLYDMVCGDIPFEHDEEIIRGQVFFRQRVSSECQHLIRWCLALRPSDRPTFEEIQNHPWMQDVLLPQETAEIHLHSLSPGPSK
T2 sequence (P11309 whole entry): as above
T3 sequence (Q9P1W9 whole entry): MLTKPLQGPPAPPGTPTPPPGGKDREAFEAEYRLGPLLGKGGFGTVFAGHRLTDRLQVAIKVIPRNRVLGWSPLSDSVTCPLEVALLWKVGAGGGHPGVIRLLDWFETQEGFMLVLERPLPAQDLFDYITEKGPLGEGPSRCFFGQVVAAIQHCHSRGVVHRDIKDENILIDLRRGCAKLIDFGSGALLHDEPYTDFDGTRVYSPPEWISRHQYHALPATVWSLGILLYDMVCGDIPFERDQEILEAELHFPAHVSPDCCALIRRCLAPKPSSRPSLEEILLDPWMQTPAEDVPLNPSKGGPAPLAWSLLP

| SMILES | IC50 [1] [nM] | IC50 [2] [nM] | IC50 [3] [nM] | IC50 [4] [nM] |
| --- | --- | --- | --- | --- |
| Nc1nccc(N2CCc3ccc(-c4ccc5[nH]nc(-c6cncc(N7CCC(N)CC7)n6)c5c4)cc32)n1 [Example 113, 4-(6-(3-(6-(4-amino-1-piperidinyl)-2-pyrazinyl)-1H-indazol-5-yl)-2,3-dihydro-1H-indol-1-yl)-2-pyrimidinamine] | 17 | > 15800 | 549 | 33 |
| Fc1ncc(Cl)cc1-c1ccc2[nH]nc(-c3cncc(O[C@@H]4CCCNC4)n3)c2c1 [Example 117, 5-(5-chloro-2-fluoro-3-pyridinyl)-3-(6-((3R)-3-piperidinyloxy)-2-pyrazinyl)-1H-indazole] | 18 | 761 | 66 | 5 |
| Fc1cccnc1-c1ccc2[nH]nc(-c3cncc(O[C@@H]4CCCNC4)n3)c2c1 [Example 124, 5-(3-fluoro-2-pyridinyl)-3-(6-((3R)-3-piperidinyloxy)-2-pyrazinyl)-1H-indazole] | 11 | 402 | 58 | 11 |
| COc1cccc(-c2ccc3[nH]nc(-c4cncc(O[C@@H]5CCCNC5)n4)c3c2)n1 [Example 137, 5-(6-methoxy-2-pyridinyl)-3-(6((3R)-3-piperidinyloxy)-2-pyrazinyl)-1H-indazole] | 8 | 585 | 63 | 6 |
| CC(C)Oc1cccc(-c2ccc3[nH]nc(-c4cncc(O[C@@H]5CCCNC5)n4)c3c2)c1 [Example 146, 5-(3-(1-methylethoxy)phenyl)-3-(6-((3R)-3-piperidinyloxy)-2-pyrazinyl)-1H-indazole] | 7 | 996 | 84 | 31 |
| C(=C\C1CC1)/c1ccc2[nH]nc(-c3cncc(O[C@@H]4CCCNC4)n3)c2c1 [Example 147, 5-((E)-2-cyclopropylethenyl)-3-(6-((3R)-3-piperidinyloxy)-2-pyrazinyl)-1H-indazole] | 7 | 724 | 105 | 13 |
| COc1nccc(-c2ccc3[nH]nc(-c4cncc(O[C@@H]5CCCNC5)n4)c3c2)n1 [Example 152, 5-(2-methoxy-4-pyrimidinyl)-3-(6-((3R)-3-piperidinyloxy)-2-pyrazinyl)-1H-indazole] | 7 | 1060 | 36 | 7 |
| CC(C)Oc1nccc(-c2ccc3[nH]nc(-c4cncc(O[C@@H]5CCCNC5)n4)c3c2)n1 [Example 153, 5-(2-(1-methylethoxy)-4-pyrimidinyl)-3-(6-((3R)-3-piperidinyloxy)-2-pyrazinyl)-1H-indazole] | 12 | 174 | 165 | 27 |

Further molecules by falling IC50 [1], results first:

| IC50 [1] [nM] | IC50 [2] [nM] | IC50 [3] [nM] | IC50 [4] [nM] | SMILES |
| --- | --- | --- | --- | --- |
| 7 | 316 | 37 | 14 | c1ccc(-c2ccc3[nH]nc(-c4cncc(O[C@@H]5CCCNC5)n4)c3c2)cc1 [Example 134, 5-phenyl-3-(6-((3R)-3-piperidinyloxy)-2-pyrazinyl)-1H-indazole] |
| 6 | 314 | 25 | 7 | C1=C(c2ccc3[nH]nc(-c4cncc(O[C@@H]5CCCNC5)n4)c3c2)CCOC1 [Example 148, 5-(3,6-dihydro-2H-pyran-4-yl)-3-(6-((3R)-3-piperidinyloxy)-2-pyrazinyl)-1H-indazole] |
| 6 | 292 | 48 | 7 | c1cnnc(-c2ccc3[nH]nc(-c4cncc(O[C@@H]5CCCNC5)n4)c3c2)c1 [Example 149, 3-(6-((3R)-3-piperidinyloxy)-2-pyrazinyl)-5-(3-pyridazinyl)-1H-indazole] |
| 3 | 145 | 98 | 8 | CC(C)Oc1cncc(-c2ccc3[nH]nc(-c4cncc(O[C@@H]5CCCNC5)n4)c3c2)c1 [Example 120, 5-(5-(1-methylethoxy)-3-pyridinyl)-3-(6-((3R)-3-piperidinyloxy)-2-pyrazinyl)-1H-indazole] |
